This is an account of results in PubChem BioAssay AID504611 (National Center for Advancing Translational Sciences (NCATS), 2011).

In the series the test system is Caco-2 monolayer permeability, A-to-B, LC-MS/MS. In words: Inhibitors of 12-hLO: Caco-2 Permeability Profiling. The following applies: active compounds read high. From the text:
Assay Provider: Holman, T.R., University of California, Santa Cruz Grant #: MH08128301 Screening Center PI: Austin, C.P. Screening Center: NIH Chemical Genomics Center [NCGC] Human lipoxygenase 12hLO is a member of the closely related lipoxygenase family of enzymes which catalyze the site-specific oxidation of arachidonic acid to various hormone precursor molecules and as such is a candidate for drug development in a variety of disease areas, such as cancer and inflammation. After qHTS, hits were confirmed in follow-up assays, and leads were optimized through SAR. The resulting lead compound was further characterized through a battery ADME-Tox experiments and this assay describes its Caco-2 permeability. This permeability assay predicts the in vivo absorption of the lead across the intestinal lining by using a Caco-2 cell line and measuring the lead's rate of transport […].
1. Buffer Preparation: Prepare 1M HEPES: add 23.83g HEPES to 100ml of 0.85% NaCl Prepare HBSS+ buffer: add 12.8ml of 1M HEPES in 0.85% NaCl to 500ml HBSS buffer. 2. Take out the compounds from -80 degrees C, ultrasonicate or pre-warm for a few minutes to thaw the compounds. 3. […] The T0, LY and T90, LY plates are read by FlexStation 3 at excitation of 485 nm and emission of 535 nm to determine LY permeability. […]

Molecules are shown by their SMILES.

In the case of `CC(=O)NC(c1cccs1)c1cc(Br)c2cccnc2c1O` (stereo unspecified), the permeability Papp was 8.8 10^-6 cm/s.
